Data: the supplement of paper PMC13380429
Counter-ions that a name gives are not always drawn. ± gives the standard deviation of the averaged measurements.

Experiments:
Conditions in all cases: 72 h
Caco-2 [1] = assay: cell viability relative to DMSO; higher = less toxic
Calu-3 [2] = assay: as above
HepG2 [3] = assay: as above
U2OS [4] = assay: as above
Vero E6 [5] = assay: as above
Caco-2 [6] = assay: relative viability EC50 (midpoint between 100% and the lowest measured viability); higher = less toxic
Calu-3 [7] = assay: as above
HepG2 [8] = assay: as above
U2OS [9] = assay: as above
Vero E6 [10] = assay: as above
Caco-2 [11] = assay: drug sensitivity score (DSS) for viability; higher = more toxic; extreme values may be limits of the assay
Calu-3 [12] = assay: as above
HepG2 [13] = assay: as above
U2OS [14] = assay: as above
Vero E6 [15] = assay: as above

Compound | cell viability (Caco-2 [1]; 1 nM) [%] | cell viability (Caco-2 [1]; 10 nM) [%] | cell viability (Caco-2 [1]; 100 nM) [%] | cell viability (Caco-2 [1]; 1000 nM) [%] | cell viability (Caco-2 [1]; 10000 nM) [%] | cell viability (Calu-3 [2]; 1 nM) [%] | cell viability (Calu-3 [2]; 10 nM) [%] | cell viability (Calu-3 [2]; 100 nM) [%] | cell viability (Calu-3 [2]; 1000 nM) [%] | cell viability (Calu-3 [2]; 10000 nM) [%] | cell viability (HepG2 [3]; 1 nM) [%] | cell viability (HepG2 [3]; 10 nM) [%] | cell viability (HepG2 [3]; 100 nM) [%] | cell viability (HepG2 [3]; 1000 nM) [%] | cell viability (HepG2 [3]; 10000 nM) [%] | cell viability (U2OS [4]; 1 nM) [%] | cell viability (U2OS [4]; 10 nM) [%] | cell viability (U2OS [4]; 100 nM) [%] | cell viability (U2OS [4]; 1000 nM) [%] | cell viability (U2OS [4]; 10000 nM) [%] | cell viability (Vero E6 [5]; 1 nM) [%] | cell viability (Vero E6 [5]; 10 nM) [%] | cell viability (Vero E6 [5]; 100 nM) [%] | cell viability (Vero E6 [5]; 1000 nM) [%] | cell viability (Vero E6 [5]; 10000 nM) [%] | relative viability EC50 (Caco-2 [6]) [µM] | relative viability EC50 (Calu-3 [7]) [µM] | relative viability EC50 (HepG2 [8]) [µM] | relative viability EC50 (U2OS [9]) [µM] | relative viability EC50 (Vero E6 [10]) [µM] | drug sensitivity score (Caco-2 [11]) | drug sensitivity score (Calu-3 [12]) | drug sensitivity score (HepG2 [13]) | drug sensitivity score (U2OS [14]) | drug sensitivity score (Vero E6 [15])
COc1cccc2c1C(=O)c1c(O)c3c(c(O)c1C2=O)C[C@@](O)(C(=O)CO)C[C@@H]3O[C@H]1C[C@H](N)[C@@H](O)[C@H](C)O1 [Epirubicin Hydrochloride] | 95.8 ± 5.9 | 97 ± 6.3 | 89 ± 1.4 | 40.8 ± 1.2 | 30.9 ± 1.7 | 101 ± 3.3 | 102 ± 6.4 | 80 ± 6.6 | 41.2 ± 1.1 | 30.4 ± 0.49 | 102.8 ± 0.14 | 93.2 ± 12 | 49.7 ± 0.57 | 12.25 ± 0.071 | 4.25 ± 0.64 | 95.5 ± 1.4 | 99.7 ± 0.28 | 90.2 ± 1.8 | 17.1 ± 9.9 | 3.15 ± 1.3 | 100 ± 2 | 96.5 ± 2 | 96 ± 3.5 | 71.1 ± 3.7 | 34.4 ± 8 | 0.3 | 0.224 | 0.0903 | 0.349 | 1.13 | 12.3 ± 0.35 | 13.3 ± 0.99 | 22.9 ± 0.14 | 16.6 ± 1.5 | 7
CC(=O)Nc1ccc(Cc2ccc(NC(C)=O)cc2)cc1 [FH1] | 107 | 100 | 104 | 93.7 | 102 | 95.7 | 99.9 | 84.2 | 92.8 | 104 | 99.5 | 104 | 107 | 102 | 96.8 | 98.8 | 96.6 | 99.4 | 104 | 103 | 99.8 | 98.1 | 96.8 | 102 | 98.9 | > 10 | > 10 | > 10 | > 10 | > 10 | 0 | 0 | 0 | 0 | 0
NC(N)=Nc1nc(CSCC/C(N)=N/S(N)(=O)=O)cs1 [Famotidine] | 101 | 101 | 93.9 | 96.8 | 96.8 | 84 | 106 | 89.8 | 106 | 90.1 | 101 | 97.4 | 87.9 | 100 | 85.4 | 98 | 104 | 98.6 | 108 | 97.5 | 106 | 105 | 95.2 | 102 | 96.7 | > 10 | > 10 | > 10 | > 10 | > 10 | 0 | 0 | 0 | 0 | 0
O=C(O)Cc1cccc(OCCCN(Cc2cccc(C(F)(F)F)c2Cl)CC(c2ccccc2)c2ccccc2)c1 [GW-3965] | 92.8 | 107 | 97.8 | 98.1 | 77.7 | 93.6 | 101 | 108 | 114 | 98.8 | 90.9 | 99.3 | 116 | 97.5 | 92.5 | 100 | 99.2 | 98.2 | 101 | 95.6 | 112 | 98.8 | 100 | 101 | 104 | > 10 | > 10 | > 10 | > 10 | > 10 | 1 | 0 | 0 | 0 | 0
Cc1cc(C(=O)CN2CCCC2)c(C)n1-c1ccc(F)cc1 [IU1] | 103 | 105 | 101 | 108 | 99.1 | 112 | 99.9 | 102 | 109 | 104 | 95.7 | 100 | 101 | 102 | 103 | 92.3 | 98.8 | 95.5 | 96.2 | 109 | 99.2 | 97.8 | 98.4 | 94.6 | 105 | > 10 | > 10 | > 10 | > 10 | > 10 | 0 | 0 | 0 | 0 | 0
C=C1C[C@]23C[C@@]1(O)CC[C@H]2[C@@]12C=C[C@H](O)[C@@](C)(C(=O)O1)[C@H]2[C@@H]3C(=O)O [MD-920] | 99.9 | 85.4 | 104 | 95.1 | 90.3 | 96.1 | 106 | 108 | 105 | 91.1 | 95.5 | 107 | 94.2 | 99 | 104 | 95.1 | 96.1 | 104 | 101 | 97 | 100 | 94.6 | 86.7 | 102 | 116 | > 10 | > 10 | > 10 | > 10 | > 10 | 0 | 0 | 0 | 0 | 0
CCN1C[C@H](C)n2c(c(O)c3c(=O)n(Cc4ccc(F)c(Cl)c4)nc(C(=O)NC)c32)C1=O [MK-2048] | 97.2 | 96 | 93.2 | 94.7 | 87.4 | 91.3 | 90.2 | 92.3 | 98.2 | 93.7 | 110 | 106 | 93.9 | 100 | 98.4 | 101 | 96.3 | 102 | 98.5 | 97.8 | 101 | 100 | 105 | 101 | 98 | > 10 | > 10 | > 10 | > 10 | > 10 | 0 | 0 | 0 | 0 | 0
O[C@@](Cc1nc(CC2(C(F)(F)F)CC2)c[nH]1)(c1ccc(-n2cccn2)cc1)C(F)(F)F [MK-5046] | 102 | 115 | 98.8 | 97 | 88.4 | 107 | 95.3 | 105 | 110 | 87.5 | 99.5 | 101 | 104 | 94.7 | 96.6 | 96 | 96.9 | 92.8 | 96.3 | 90.8 | 97.8 | 96.7 | 98.5 | 100 | 98.2 | > 10 | > 10 | > 10 | > 10 | > 10 | 0.1 | 0 | 0 | 0 | 0
Clc1cccc(Nc2nnc(-c3ccccc3)c3ccccc23)c1 [MY-5445] | 93 | 104 | 94.7 | 104 | 97.9 | 95.2 | 97.7 | 88.2 | 104 | 104 | 104 | 98.4 | 107 | 104 | 103 | 95 | 98.2 | 95.6 | 99.8 | 101 | 96.6 | 96.7 | 95.8 | 92.1 | 106 | > 10 | > 10 | > 10 | > 10 | > 10 | 0 | 0 | 0 | 0 | 0
Cc1ncc(COP(=O)([O-])[O-])c(CN(CCN(CC(=O)O)Cc2c(COP(=O)([O-])O)cnc(C)c2O)CC(=O)O)c1O.[Mn].[Na+].[Na+].[Na+] [Mangafodipir (trisodium)] | 95.1 | 99.5 | 94.5 | 108 | 135 | 91.5 | 107 | 104 | 87.6 | 103 | 110 | 89.4 | 105 | 101 | 98.4 | 95.1 | 100 | 94.7 | 93.4 | 101 | 111 | 99.7 | 107 | 97 | 99.2 | > 10 | > 10 | > 10 | > 10 | > 10 | 0 | 0 | 0 | 0 | 0
Cc1cc(=O)n(-c2ccccc2)[nH]1 [N-demethylantipyrine] | 99.3 | 97.2 | 102 | 84.8 | 99.8 | 102 | 107 | 98.5 | 97 | 106 | 94.1 | 106 | 95.3 | 107 | 93.8 | 101 | 99.7 | 98.7 | 102 | 98.5 | 104 | 101 | 94.2 | 95.2 | 102 | > 10 | > 10 | > 10 | > 10 | > 10 | 0 | 0 | 0 | 0 | 0
CN[C@H](CC(=O)O)C(=O)O [NMDA] | 101 | 97.5 | 103 | 103 | 88 | 85.4 | 88.6 | 87.7 | 105 | 89.4 | 99.9 | 102 | 110 | 104 | 102 | 95.1 | 96.8 | 91.7 | 102 | 91.5 | 107 | 107 | 104 | 99.5 | 107 | > 10 | > 10 | > 10 | > 10 | > 10 | 0 | 0 | 0 | 0 | 0
On1ncc(C2CCNCC2)c1-c1cccc(-c2ccccc2)c1 [PHP-501] | 100 | 97.3 | 93 | 102 | 94.6 | 106 | 102 | 91.1 | 97.1 | 107 | 108 | 99.6 | 105 | 97.4 | 100 | 95.5 | 102 | 98.1 | 109 | 106 | 97.7 | 92.1 | 92 | 89.9 | 111 | > 10 | > 10 | > 10 | > 10 | > 10 | 0 | 0 | 0 | 0 | 0
[N-]=[N+]=N[C@]1(CO)O[C@@H](n2ccc(N)nc2=O)[C@H](O)[C@@H]1O [R-1479] | 98.2 ± 3.6 | 96.2 ± 4 | 90.7 | 98.6 ± 11 | 96.7 ± 9.1 | 91.35 ± 0.78 | 99.5 ± 4.4 | 102.8 ± 0.78 | 100 ± 2.3 | 93 ± 1.5 | 112 ± 7.2 | 94.25 ± 0.92 | 98.3 ± 2.8 | 94.7 ± 1.7 | 96.2 ± 3.6 | 98 ± 0.85 | 102 ± 2.8 | 102 ± 1.3 | 105 ± 2.5 | 100 ± 0.14 | 99 ± 3.8 | 96.4 ± 1.7 | 97.8 ± 1.7 | 94.5 ± 2.8 | 103 ± 6.7 | > 10 | > 10 | > 10 | > 10 | > 10 | 0 | 0 | 0 | 0 | 0
